ChEMBL document CHEMBL1132382 (J Med Chem, 1999)
Values after ≈ are worked out from the molar mass of the structure shown. Each block holds one compound with its values, some of them ahead of it.

What was measured:
[1] = molecular target: T1, Carbonic anhydrase 4 (Bos taurus, UniProt Q95323)
T1 sequence (Q95323 whole entry): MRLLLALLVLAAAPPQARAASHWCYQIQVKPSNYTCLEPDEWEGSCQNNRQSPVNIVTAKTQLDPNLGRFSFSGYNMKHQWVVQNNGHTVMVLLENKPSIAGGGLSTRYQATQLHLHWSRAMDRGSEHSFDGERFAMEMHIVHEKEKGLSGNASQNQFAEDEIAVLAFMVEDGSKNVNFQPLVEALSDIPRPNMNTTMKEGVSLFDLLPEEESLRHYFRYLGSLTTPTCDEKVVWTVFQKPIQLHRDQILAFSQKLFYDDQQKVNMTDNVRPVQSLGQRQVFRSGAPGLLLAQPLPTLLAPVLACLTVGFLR
Description: Inhibitory activity against bovine carbonic anhydrase IV (CA4), isolated from bovine lung microsomes

[2] = species on record: Oryctolagus cuniculus; assay: The compound was evaluated for fall in intraocular pressure (IOP) of Normotensive rabbits after treatment with one drop (50 microL) of a 2% solution at 30 min (pH 5.5); format: functional, Eye
[3] = species on record: Oryctolagus cuniculus; assay: The compound was evaluated for fall in intraocular pressure (IOP) of Normotensive rabbits after treatment with one drop (50 microL) of a 2% solution at 0 min (pH 5.5); format: functional, Eye
[4] = species on record: Oryctolagus cuniculus; assay: The compound was evaluated for fall in intraocular pressure (IOP) of Glaucomatous rabbits after treatment with one drop (50 microL) of a 2% solution at 30 min (pH 6.0); format: functional, Eye
[5] = species on record: Oryctolagus cuniculus; assay: The compound was evaluated for fall in intraocular pressure (IOP) of Glaucomatous rabbits after treatment with one drop (50 microL) of a 2% solution at 60 min (pH 6.0); format: functional, Eye
[6] = species on record: Oryctolagus cuniculus; assay: The compound was evaluated for fall in intraocular pressure (IOP) of Glaucomatous rabbits after treatment with one drop (50 microL) of a 2% solution at 90 min (pH 6.0); format: functional, Eye
[7] = species on record: Oryctolagus cuniculus; assay: The compound was evaluated for fall in intraocular pressure (IOP) of Normotensive rabbits after treatment with one drop (50 microL) of a 2% solution at 60 min (pH 5.5); format: functional, Eye
[8] = species on record: Oryctolagus cuniculus; assay: The compound was evaluated for fall in intraocular pressure (IOP) of Normotensive rabbits after treatment with one drop (50 microL) of a 2% solution at 90 min (pH 5.5); format: functional, Eye
[9] = species on record: Oryctolagus cuniculus; assay: The compound was evaluated for fall in intraocular pressure (IOP) of Glaucomatous rabbits after treatment with one drop (50 microL) of a 2% solution at 0 min (pH 6.0); format: functional, Eye
[10] = molecular target: Carbonic anhydrase 1 (Homo sapiens, UniProt P00915)
Chain of Carbonic anhydrase 1 (P00915 whole entry): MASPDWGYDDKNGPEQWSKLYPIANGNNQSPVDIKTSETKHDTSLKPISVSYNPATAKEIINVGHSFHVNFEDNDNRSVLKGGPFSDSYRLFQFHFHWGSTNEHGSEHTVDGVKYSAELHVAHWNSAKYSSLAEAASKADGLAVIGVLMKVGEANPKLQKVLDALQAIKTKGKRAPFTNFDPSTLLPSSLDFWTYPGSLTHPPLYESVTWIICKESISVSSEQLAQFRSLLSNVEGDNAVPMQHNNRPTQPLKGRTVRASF
Description: Inhibitory activity against human recombinant carbonic anhydrase I (CA1)

[11] = not given; remark: listed apart in the source
[12] = octanol/water
Description: Partition coefficient (logD) (chloroform/buffer)

[13] = physchem; conditions: buffer, pH 7.4
[14] = species on record: Oryctolagus cuniculus; assay: The compound was evaluated for fall in intraocular pressure (IOP) of Normotensive rabbits after treatment with one drop (50 microL) of a 2% solution at 0 min (pH 7.5); format: functional, Eye
[15] = species on record: Oryctolagus cuniculus; assay: The compound was evaluated for fall in intraocular pressure (IOP) of Glaucomatous rabbits after treatment with one drop (50 microL) of a 2% solution at 30 min (pH 7.5); format: functional, Eye
[16] = species on record: Oryctolagus cuniculus; assay: The compound was evaluated for fall in intraocular pressure (IOP) of Glaucomatous rabbits after treatment with one drop (50 microL) of a 2% solution at 60 min (pH 7.5); format: functional, Eye
[17] = species on record: Oryctolagus cuniculus; assay: The compound was evaluated for fall in intraocular pressure (IOP) of Glaucomatous rabbits after treatment with one drop (50 microL) of a 2% solution at 90 min (pH 7.5); format: functional, Eye
[18] = species on record: Oryctolagus cuniculus; assay: The compound was evaluated for fall in intraocular pressure (IOP) of Normotensive rabbits after treatment with one drop (50 microL) of a 2% solution at 90 min (pH 7.5); format: functional, Eye
[19] = species on record: Oryctolagus cuniculus; assay: The compound was evaluated for fall in intraocular pressure (IOP) of Normotensive rabbits after treatment with one drop (50 microL) of a 2% solution at 30 min (pH 7.5); format: functional, Eye
[20] = species on record: Oryctolagus cuniculus; assay: The compound was evaluated for fall in intraocular pressure (IOP) of Normotensive rabbits after treatment with one drop (50 microL) of a 2% solution at 60 min (pH 7.5); format: functional, Eye
[21] = species on record: Oryctolagus cuniculus; assay: The compound was evaluated for fall in intraocular pressure (IOP) of Glaucomatous rabbits after treatment with one drop (50 microL) of a 2% solution at 0 min (pH 7.5); format: functional, Eye

Ki [1]: 9 nM
Ki [10]: 14 nM
kin: 3.1 h⁻¹
kin [11]: 5.4 h⁻¹
logD [12]: 0.043
solubility [13]: 65 mM (≈ 25.5 mg/mL)
Compound: NCC(=O)Nc1ccc(S(=O)(=O)Nc2nnc(S(N)(=O)=O)s2)cc1
Change in IOP [2]: 5.9 mmHg
Change in IOP [3]: 0 mmHg
Change in IOP [4]: 7.9 mmHg
Change in IOP [5]: 12.5 mmHg
Change in IOP [6]: 14 mmHg
Change in IOP [7]: 9.5 mmHg
Change in IOP [8]: 9 mmHg
Change in IOP [9]: 0 mmHg

Ki [1]: 6 nM
Ki [10]: 13 nM
kin: 2 h⁻¹
kin [11]: 5 h⁻¹
logD [12]: 0.754
solubility [13]: 51 mM (≈ 22.9 mg/mL)
Compound: NCC(=O)NCC(=O)Nc1ccc(S(=O)(=O)Nc2nnc(S(N)(=O)=O)s2)cc1
Change in IOP [14]: 0 mmHg
Change in IOP [15]: 7 mmHg
Change in IOP [16]: 11.8 mmHg
Change in IOP [17]: 13.1 mmHg
Change in IOP [18]: 9.1 mmHg
Change in IOP [19]: 5.9 mmHg
Change in IOP [20]: 8.8 mmHg
Change in IOP [21]: 0 mmHg
